Molecular target: Coagulation factor XI (Homo sapiens, UniProt P03951)
Assay: In Vitro Assay: The effectiveness of compounds of the present invention as inhibitors of the coagulation Factors XIa, VIIa, IXa, Xa, XIIa, plasma kallikrein or thrombin, can be determined using a relevant purified serine protease, respectively, and an appropriate synthetic substrate. The rate of hydrolysis of the chromogenic or fluorogenic substrate by the relevant serine protease was measured both in the absence and presence of compounds of the present invention. […] A decrease in the rate of absorbance or fluorescence change in the presence of inhibitor is indicative of enzyme inhibition. Factor XIa determinations were made in 50 mM HEPES buffer at pH 7.4.

Coagulation factor XI, sequence (P03951 19-387 limits assumed): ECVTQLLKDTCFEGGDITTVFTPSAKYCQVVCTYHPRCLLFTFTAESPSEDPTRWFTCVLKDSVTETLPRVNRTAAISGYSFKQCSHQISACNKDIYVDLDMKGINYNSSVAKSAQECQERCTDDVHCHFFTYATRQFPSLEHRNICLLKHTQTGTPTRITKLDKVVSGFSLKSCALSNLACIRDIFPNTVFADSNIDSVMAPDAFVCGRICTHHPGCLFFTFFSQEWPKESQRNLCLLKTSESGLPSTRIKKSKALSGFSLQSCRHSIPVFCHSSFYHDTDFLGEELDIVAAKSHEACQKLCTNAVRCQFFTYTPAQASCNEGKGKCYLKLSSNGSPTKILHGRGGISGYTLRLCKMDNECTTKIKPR
Coagulation factor XI, sequence (P03951 388-625 limits assumed): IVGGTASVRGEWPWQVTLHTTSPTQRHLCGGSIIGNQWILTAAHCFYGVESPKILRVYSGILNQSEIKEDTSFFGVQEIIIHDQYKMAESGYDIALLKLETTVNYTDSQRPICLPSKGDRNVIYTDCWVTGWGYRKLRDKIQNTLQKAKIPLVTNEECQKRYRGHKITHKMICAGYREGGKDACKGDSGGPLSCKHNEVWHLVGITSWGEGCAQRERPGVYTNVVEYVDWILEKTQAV

## COC(=O)Nc1ccc2c(c1)CNC(=O)c1ccc(cc1)C[C@H](NC(=O)/C=C/c1cc(Cl)ccc1-n1cnnn1)c1nc-2c(Cl)[nH]1
  Ki: 8.12 µM

From ChEMBL document CHEMBL3638865, “Macrocycles as factor XIa inhibitors” (2014)
